Measurements from patent US8697081B2, “Method of modulating neovascularization” (The Regents of the University of Michigan, priority 2008, dated 2014).

Columns and labels:
[1] = tested on: Human umbilical vein endothelial cells; test: VEGF/HGF-triggered vasculogenesis in 3-D fibrin gel, or growth in 2-D culture; type: cell-based; conditions: for growth of VEGF/HGF-stimulated endothelial cells: 2-D culture atop fibrin gels; for elongation, proliferation and neovessel formation: 3-D fibrin gel
Description: (§1) At sites of tissue damage, inflammation or neoplasia, fibrinogen is converted into a 3-D meshwork of fibrin fibrils that serve as a structural support for endothelial cells undergoing neovascularization (Chun et al. 2006. Cell, 125: 577-591; Hiraoka et al. 1998. Cell, 95: 365-377; Schafer and Werner. 2008. Nat. Rev. Mol. Cell Biol., 9: 628-638; Zhou et al. 2008. Genes Dev., 22: 1231-1243). This process can be recapitulated in vitro by embedding serum-supplemented human endothelial cells within a 3-D fibrin gel in the presence of the pro-angiogenic factors, VEGF and HGF. Human umbilical vein endothelial cells were isolated from umbilical cords by perfusion of the umbilical vein with type 3 collagenase (Worthington, Lakewood, N.J.) and cultured in Medium-199 (Invitrogen, Carlsbad, Calif.) with 20% human serum and 50 μg/ml endothelial cell growth supplement (ECGS; BD Biosciences, Franklin Lakes, N.J.). For 3-D culture, endothelial cells were suspended in a solution of thrombin and aprotinin (Sigma, St. Louis, Mo.) and mixed 1:1 with a solution of 6 mg/ml fibrinogen (Calbiochem, Gibbstown, N.J.). Vasculogenesis was triggered by treatment with 100 ng/ml VEGF, 50 ng/ml HGF (Genentech, San Francisco, Calif.). Fibronectin fibrillogenesis was tracked in 3-D by co-culture with human fibronectin (Sigma) labeled with Alexa-594 (Invitrogen).
In the presence of VEGF and HGF, endothelial cells i) underwent marked changes in cell morphology from spherical to elongated, ii) mobilized proteinases which degrade the surrounding fibrin, iii) assembled a pericellular meshwork of fibronectin fibrils, and iv) initiated proliferative and tubulogenic responses that result in the formation of an anastomosing network of neovessels over a 6 day culture period (Hiraoka, supra; Saunders et al., 2006. J Cell Biol. 175: 179-191; Zhou et al., 2008. Proc. Natl. Acad. Sci. USA, 97: 4052-4057). […] Cell, 125: 757-767; Saunders et al., supra; Tomasini-Johansson et al., 2001. J. Biol. Chem., 276: 23430-23439; Zhou et al, supra). Endothelial cells cultured atop—rather than embedded within—fibrin gels (herein referred to as 2-D culture) display distinct growth requirements from those observed in 3-D culture.
Taken together, cytoskeletal reorganization and contractile tension may serve as the biomechanical effectors that transmit structural and mechanical cues from the pericellular ECM to the nuclear envelope. VEGF/HGF-stimulated endothelial cells were treated with either (a) blebbistatin to inhibit myosin ATPase function, or (b) nocodazole to prevent microtubule assembly under 3-D culture conditions (Salpingidou et al., 2007. J. Cell Biol., 178: 897-904; Zhou et al., supra).

[2] = tested on: Human umbilical vein endothelial cells; test: Nuclear architecture (GFP-lamin A, emerin) and nuclear pore complex (NUP153) distribution; type: cell-based; conditions: for nuclear architecture: 2-D conditions; for nuclear shape / redistribution of nuclear pore complexes: 3-D fibrin gel
Description: as §1
As the 3-D-specific requirements for MT-MMPs and fibronectin matrix assembly correlate with changes in endothelial cell morphology, efforts were initiated to identify mechanistic routes whereby cell shape changes impact cell function. In particular, the impact of ECM remodeling on nuclear architecture was investigated. Nuclear architecture was tracked by either transfecting cells with a GFP-tagged form of the nuclear matrix filament, lamin A, or by immunostaining for the integral nuclear membrane protein, emerin (Dahl et al., 2008. Circ. Res., 102: 1307-1318; Glynn and Glover, 2005. Hum. Mol. Genet., 14: 2959-2969; Starr, 2009. J. Cell Sci., 122: 577-586; Stewart et al., 2007. Science, 318: 1408-1412). Under 2-D conditions, endothelial cell nuclei assumed an ellipsoid shape when cultured atop fibrin gels in the absence or presence of VEGF/HGF. In marked contrast, under 3-D conditions, endothelial cells cultured within fibrin gels in the absence of VEGF/HGF unexpectedly display a distorted morphology with multiple lamin A matrix and emerin infoldings and surface irregularities. Upon addition of VEGF/HGF, however, the nuclei of fibrin-embedded endothelial cells undergo a dramatic, and 3-D-specific, remodeling to assume a more classic, ovoid morphology. Three-dimensional reconstructions of DAPI-stained nuclei confirm that nuclear architecture transitions between multi-lobed and smooth elliptical shapes in the absence or presence, respectively, of VEGF/HGF.
Nuclear matrix architecture controls the distribution of the nuclear pore complexes that regulate the trafficking of protein and RNA across the nuclear envelope (Goldman et al., 2004. Proc. Natl. Acad. Sci. USA, 101: 8963-8968; Hawryluk-Gara et al., 2005. Mol. Biol. Cell, 16: 2382-2394; Liu et al., 2007. J. Cell. Biol., 178: 785-798). As such, the localization of nuclear pores was assessed in intact cells by monitoring the localization of the component protein, NUP153. In 3-D culture, unstimulated endothelial cells accumulate NUP153-containing pore complexes at nuclear membrane invaginations. In contrast, the nuclei of VEGF/HGF-stimulated endothelial cells display a uniform distribution of pore complexes in nuclear membranes.
To determine the roles of MMP-dependent proteolysis and fibronectin matrix assembly in mediating nuclear shape and nuclear pore complex changes, fibrin-embedded endothelial cells were stimulated with VEGF/HGF in the presence of FUD or GM6001. […]

[3] = 3-D culture, VEGF/HGF-stimulated, blebbistatin or nocodazole

Molecule	endothelial cell 3-D tubulogenesis [1, 3]	nuclear shape and nuclear pore distribution [2, 3]	growth of VEGF/HGF-stimulated endothelial cells [1]	elongation, proliferation and neovessel formation ([1]; VEGF/HGF-stimulated)	nuclear architecture [2]	TUNEL staining with formation of multi-lobed nuclei ([2]; 3-D culture)	nuclear shape ([2]; VEGF/HGF-stimulated)	redistribution of nuclear pore complexes ([2]; VEGF/HGF-stimulated)
Cc1ccc2c(c1)C(=O)C1(O)CCN(c3ccccc3)C1=N2 (centres unmarked) [blebbistatin]	completely inhibit	multi-lobed nuclei with perturbations in nuclear pore distribution	–	–	–	–	–	–
CNC(=O)[C@H](Cc1c[nH]c2ccccc12)NC(=O)[C@@H](CC(=O)NO)CC(C)C [GM6001]	–	–	neither GM6001 nor FUD affect the growth	failed to elongate, proliferate or form neovessels	unaffected	does not correlate with increased TUNEL staining	locked endothelial cell nuclei into the multi-lobular conformation	completely failed to redistribute
FUD: 49-residue functional upstream domain of Streptococcus pyogenes F1 adhesion protein, SEQ ID NO: 10; fibronectin fibril assembly inhibitor (KDQSPLAGESGETEYITEVYGNQQNPVDIDKKLPNETGFSGNMVETEDT; Streptococcus pyogenes; Functional Upstream Domain (FUD) of F1 adhesion protein)	–	–	neither GM6001 nor FUD affect the growth	failed to elongate, proliferate or form neovessels	unaffected	does not correlate with increased TUNEL staining	locked endothelial cell nuclei into the multi-lobular conformation	completely failed to redistribute
